Laboratory results taken from ChEMBL document CHEMBL1201862, “PubChem BioAssay data set” (2004).
Calls of active or inactive are those of the source.

Experiments:
Cytochrome P450 2C9 = Cytochrome P450 2C9 (Homo sapiens, UniProt P11712)
[1] = molecular target: T1, Heat shock factor protein 1 (Mus musculus, UniProt P38532); assay: HSF1 potentiators in luciferase reporter cells, confirmation, cell-based, NIH3T3, luminescence, dose retest (AID 435004); type: functional;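 also: stress induced by proteasome inhibitor MG132 added 30 min after compound; luciferase reporter driven by HSF1 response element in NIH3T3 cells; actives raise luminescence as potentiators of the MG132 stress response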
T1 sequence (P38532 whole entry): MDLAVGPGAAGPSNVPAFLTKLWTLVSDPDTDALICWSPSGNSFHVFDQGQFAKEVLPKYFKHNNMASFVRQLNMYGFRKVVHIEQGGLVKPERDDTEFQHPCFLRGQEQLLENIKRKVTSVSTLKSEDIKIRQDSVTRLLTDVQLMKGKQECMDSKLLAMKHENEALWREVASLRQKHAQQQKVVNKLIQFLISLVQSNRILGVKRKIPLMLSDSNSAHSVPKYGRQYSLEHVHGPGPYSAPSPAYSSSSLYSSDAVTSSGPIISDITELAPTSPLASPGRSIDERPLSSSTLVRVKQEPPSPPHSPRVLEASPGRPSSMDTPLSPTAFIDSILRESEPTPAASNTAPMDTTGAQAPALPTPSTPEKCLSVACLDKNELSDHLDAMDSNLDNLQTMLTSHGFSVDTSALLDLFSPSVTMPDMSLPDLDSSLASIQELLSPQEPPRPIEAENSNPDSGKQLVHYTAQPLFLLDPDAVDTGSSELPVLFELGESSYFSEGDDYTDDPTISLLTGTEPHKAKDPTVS

Streptococcus = assay: Group A Streptococcus viability loss, dose response, counter-screen for streptokinase expression inhibitor project, luminescence, BacTiterGlo (AID 1915); type: functional, organism-based;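 also: potency for reduction of bacterial viability or growth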
[2] = system: Streptococcus sp. 'group A'; assay: growth inhibition of control SK(-) GAS strain, dose response, counter-screen for streptokinase expression inhibitor project, luminescence, kanamycin, BacTiterGlo, confirmation (AID 1900); type: functional, organism-based
Streptokinase A = molecular target: T2, Streptokinase A (Streptococcus pyogenes serotype M1, UniProt P10520); assay: S. pyogenes streptokinase expression inhibitors, potency, dose response, plasminogen activation absorbance, OD405 (AID 1914); type: functional, Streptococcus pyogenes M1 GAS;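 also: secreted streptokinase activity via plasminogen activation per viability signal from cell pellet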
T2 sequence (P10520 whole entry): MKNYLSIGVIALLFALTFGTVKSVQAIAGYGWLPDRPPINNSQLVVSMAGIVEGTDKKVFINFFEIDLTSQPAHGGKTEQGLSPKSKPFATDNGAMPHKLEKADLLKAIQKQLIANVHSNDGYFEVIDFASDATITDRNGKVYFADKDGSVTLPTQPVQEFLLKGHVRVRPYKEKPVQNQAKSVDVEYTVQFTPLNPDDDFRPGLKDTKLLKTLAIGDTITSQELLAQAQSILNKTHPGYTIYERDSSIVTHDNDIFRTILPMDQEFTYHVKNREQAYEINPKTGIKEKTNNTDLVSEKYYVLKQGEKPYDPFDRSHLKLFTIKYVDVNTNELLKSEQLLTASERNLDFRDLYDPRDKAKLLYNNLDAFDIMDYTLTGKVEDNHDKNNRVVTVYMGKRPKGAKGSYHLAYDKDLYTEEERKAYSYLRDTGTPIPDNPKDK

[3] = C. albicans growth with fluconazole, confirmation, fluorescence, retest (AID 2467); type: functional, cell-based
[4] = NIH-3T3 fibroblast cytotoxicity, dose response, cytotoxicity control, cell-based, fluorescence, Alamar Blue, secondary assay (AID 2327); type: functional;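 also: NIH-3T3 mouse fibroblasts cultured with fluconazole at 8 µg/mL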
[5] = HEp-2 cell cytotoxicity, dose response, cytotoxicity control for RSV inhibitor project, HTS (AID 2410); type: functional; conditions: human respiratory syncytial virus
H4 = assay: Luminescence Cell-Based Dose Response HTS to Identify Activators of 5'UTR Stem-Loop Driven Prion Protein mRNA Translation in H4 Neuroglioblastoma Cells. [Related pubchem assays: 1829 (Project Summary), 1814 (Primary HTS)]; type: functional; conditions: Homo sapiens
[6] = Luminescence Cell-Based Dose Retest to Confirm Inhibitors of Cancer Stem Cells. [Related pubchem assays (depositor defined):AID2717, AID2721]; type: functional; conditions: Homo sapiens
Cytochrome P450 2C19 = Cytochrome P450 2C19 (Homo sapiens, UniProt P33261); assay: Cytochrome panel assay with activity outcomes. Panel member name: p450-cyp2c19 Compounds with AC50 equal or less than 10 uM are considered active; type: functional
Chain of Cytochrome P450 2C19 (P33261 whole entry): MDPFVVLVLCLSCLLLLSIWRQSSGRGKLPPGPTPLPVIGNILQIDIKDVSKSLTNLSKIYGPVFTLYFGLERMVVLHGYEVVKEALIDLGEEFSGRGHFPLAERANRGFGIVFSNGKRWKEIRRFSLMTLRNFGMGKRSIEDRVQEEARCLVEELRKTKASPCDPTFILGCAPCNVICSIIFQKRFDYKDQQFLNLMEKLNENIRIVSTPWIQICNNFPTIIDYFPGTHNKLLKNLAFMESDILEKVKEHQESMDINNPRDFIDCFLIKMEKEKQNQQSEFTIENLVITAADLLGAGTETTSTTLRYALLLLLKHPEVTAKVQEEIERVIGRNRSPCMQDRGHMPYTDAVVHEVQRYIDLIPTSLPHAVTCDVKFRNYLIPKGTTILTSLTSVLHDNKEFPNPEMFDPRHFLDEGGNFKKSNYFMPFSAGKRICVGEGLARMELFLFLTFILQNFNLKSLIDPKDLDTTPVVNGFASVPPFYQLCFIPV

Chain of Cytochrome P450 2C9 (P11712 whole entry): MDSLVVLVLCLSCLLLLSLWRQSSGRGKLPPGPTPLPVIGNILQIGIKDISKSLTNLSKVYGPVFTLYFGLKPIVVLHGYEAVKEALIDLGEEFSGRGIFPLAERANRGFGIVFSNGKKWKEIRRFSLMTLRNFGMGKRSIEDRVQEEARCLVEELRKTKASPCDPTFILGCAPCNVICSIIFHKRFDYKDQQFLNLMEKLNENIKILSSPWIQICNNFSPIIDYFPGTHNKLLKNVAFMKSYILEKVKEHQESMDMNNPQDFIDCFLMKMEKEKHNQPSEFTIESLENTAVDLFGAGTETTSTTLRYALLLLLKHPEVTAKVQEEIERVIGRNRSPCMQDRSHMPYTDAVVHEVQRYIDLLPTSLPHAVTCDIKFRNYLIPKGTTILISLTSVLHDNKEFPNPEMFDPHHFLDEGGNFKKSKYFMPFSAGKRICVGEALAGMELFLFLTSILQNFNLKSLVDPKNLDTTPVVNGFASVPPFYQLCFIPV

Compound: CC(=O)OCc1c(C(F)(F)F)nn(C)c1Sc1ccccc1
- AC50 (Cytochrome P450 2C9): 28.2 µM (inconclusive)

Compound: CCS(=O)(=O)Nc1ccc2[nH]c(O)nc2c1
- EC50 [1]: > 260 µM (inactive)

Compound: O=C(N/N=C/c1cc([N+](=O)[O-])ccc1O)C(O)(c1ccccc1)c1ccccc1
- EC50 (Streptococcus): 9.11 µM (active)
- EC50 [2]: 3.11 µM (active)
- EC50 (Streptokinase A): > 150 µM (not active)
- EC50 [3]: 2.29 µM (active)
- EC50 [4]: > 150 µM (inactive)

Compound: CC(C)(C)OC(=O)COc1cc(OCC(=O)OC(C)(C)C)c2c(=O)cc(-c3ccccc3)oc2c1
- AC50 (Cytochrome P450 2C9): 2 µM (inconclusive)
- CC50 [5]: 19.6 µM (active)

Compound: COc1cccc(C(=O)c2c(C)c(CCC#N)n3ccccc23)c1OC
- EC50 [1]: > 260 µM (inactive)

Compound: O=c1c2ccccc2nc(SCc2cn3ccsc3n2)n1-c1ccccc1
- EC50 [1]: > 260 µM (inactive)

Compound: CC(C)c1ccc(/C=N/NC(=O)c2cccc(Cl)c2)cc1
- EC50 (H4): 43.1 µM (active)
- AC50 [6]: 2.88 µM (active)

Compound: COc1ccc(CNS(=O)(=O)c2cc(CN3C(=O)c4cccnc4C3=O)ccc2OC)cc1
- EC50 [1]: > 260 µM (inactive)

Compound: CC1CCC(C(=O)c2c(O)oc3ccccc3c2=O)CC1 (stereo not drawn)
- EC50 (Streptococcus): 20.3 µM (active)
- EC50 [2]: 10.4 µM (active)
- EC50 (Streptokinase A): > 150 µM (not active)
- EC50 [3]: 2.01 µM (active)
- EC50 [4]: > 150 µM (inactive)

Compound: CC(=O)[C@@]1(O)CC[C@H]2[C@H]3C[C@@H](C)C4=CC(=O)C=C[C@]4(C)[C@@]3(F)[C@@H](O)C[C@]21C
- AC50 (Cytochrome P450 2C9): 12.6 µM (inconclusive)

Compound: Cn1ncc(Br)c1C(=O)N1CCOCC1
- EC50 [1]: > 260 µM (inactive)

Compound: c1ccc(Nc2nc(N3CCCCC3)nc(N3CCCCC3)n2)cc1
- EC50 (Streptococcus): 33.9 µM (active)
- EC50 [2]: 11.7 µM (active)
- EC50 (Streptokinase A): > 150 µM (not active)

Compound: CCOC(=O)N1CCN(S(=O)(=O)c2cc(Cl)c(OC)cc2Cl)CC1
- EC50 [1]: > 260 µM (inactive)

Compound: c1cn2c(NC3CCCCC3)c(-c3ccc(SC4CCCCC4)cc3)nc2cn1
- EC50 (Streptococcus): 4.27 µM (active)
- EC50 [2]: 1.01 µM (active)
- EC50 (Streptokinase A): > 150 µM (not active)
- AC50 [6]: 3.13 µM (active)

Compound: CN(C)C(=O)c1ccc(-c2ccc3ncnc(N(C)C)c3c2)cc1
- AC50 (Cytochrome P450 2C9): 1.26 µM (inconclusive)

Compound: S=c1[nH]cc(Cc2ccccc2)s1
- EC50 [1]: > 260 µM (inactive)

Compound: Cc1cccc2cc(CN(Cc3ccco3)C(c3nnnn3CCc3ccccc3)C(C)C)c(O)nc12 (stereo not drawn)
- EC50 [1]: 70.3 µM (active)

Compound: C[N+]1(C)C[C@@H](O)C[C@@H]1C(=O)[O-] [BETONICINE]
- AC50 (Cytochrome P450 2C19): inconclusive

Compound: COc1ccc2[nH]cc(CCNc3ncnc4ccc(-c5ccoc5)cc34)c2c1
- AC50 (Cytochrome P450 2C9): 0.398 µM (inconclusive)

Compound: Cc1ccc(NC(=O)COC(=O)/C=C/c2ccc(Br)o2)cc1S(=O)(=O)N(C)C
- EC50 [1]: > 260 µM (inactive)

Compound: COCCn1nc2cc(C(=O)NCc3cc(C(F)(F)F)cc(C(F)(F)F)c3)ccc2c1OC
- AC50 (Cytochrome P450 2C19; read-out: AC50): 3.16 µM (inconclusive)

Compound: Cc1c(C(=O)NCCN(C)C)oc2ccc(S(=O)(=O)N3CCCC3)cc12
- EC50 [1]: > 260 µM (inactive)

Compound: O=C(O)[C@H]1[C@H]2c3ccccc3[C@H](c3ccccc32)[C@@H]1C(=O)NCC1CC1
- AC50 (Cytochrome P450 2C19; read-out: AC50): 3.98 µM (inconclusive)
